Where two headings read alike, the source gives them in different places.
Experiments:
[1] = tested on: Amygdala kindled rats (generalized and focal seizures); experiment: Seizure suppression in amygdala kindled rats; type: in vivo, rat; conditions: IP; for suppression of focal seizures: suppressed = absence of EEG seizure activity lasting more than 4 seconds, FIGS. 1B, 2B; for suppression of generalized seizures: suppressed = absence of stage 3 or higher seizure (Racine scale), FIGS. 1A, 2A
Experimental: Preclinical studies were performed to study the effects of CBD or THC alone, or CBD in combination with THC, on seizures. Amygdala kindled rats were used as a model for generalized and focal seizures in these studies.
Kindling Procedure: An insulated bipolar electrode was implanted in the right basolateral amygdala of male Sprague Dawley rats (50-55 days old). Two weeks following implantation, the rats began daily kindling. The stimulation used for kindling was a 1 second train of biphasic 60 Hz square wave pulses at an intensity of 400 micro-amps, once per day. Both the focal afterdischarge (AD) and convulsive behavior were monitored for a minimum of 30 seconds after stimulation or until an observed seizure ended. Rats were stimulated once daily until ten stage 5 Racine scale seizures have been generated, after which they are considered fully kindled (typically 3-4 weeks).
Seizure Scoring: The focal seizures were defined by observing the afterdischarge (AD) recorded by electroencephalogram (EEG) via the implanted electrode. The focal AD can last as long as 1-2 minutes post stimulation. The focal AD is not necessarily accompanied by a secondary generalized motor seizure, especially early in the kindling process. Early behavioural signs may include the cessation of behaviour or blinking. After sufficient kindling has been induced, generalized motor events of seizure generalization began to occur. These events were rated using the Racine scale. The stages are as follows: Stage 1—facial clonus; Stage 2—head nodding; Stage 3—forelimb clonus; Stage 4—forelimb clonus and rearing on hindlimbs; Stage 5—loss of postural control (rearing and following over).
Seizure Threshold Testing: Two days after the 10th stage 5 seizure was recorded, the animal's seizure threshold was tested using ascending series technique. The process was started at an intensity of 20 micro-amps, which was increased by 20 micro-amps every two minutes until an AD was produced. The seizure threshold is defined as the current needed to produce the AD.
Stability Testing: After seizure thresholds were determined, the animals underwent stability testing to confirm the reliability of the threshold. The animals were stimulated at 25% above the determined threshold 3 times per week for 2 weeks. If seizures were consistently evoked at this level of stimulation, the rat was considered stable. […]
The effects of: a) CBD alone (0, 20, 40, 80, 160, 320 mg/kg; 10 subjects per dose); b) THC alone (0, 5, 10, 20, 40, 80 mg/kg; 10 subjects per dose); or c) CBD+THC (15:1) (CBD dose of 0, 20, 40, 80, 160, 320 mg/kg; 10 subjects per dose), were tested. […] A generalized seizure was considered to be suppressed if there was an absence of stage 3 or higher seizure, assessed using the Racine scale. […]

seizures [2] = conditions: cited from earlier work; for median reduction (seizures): at 12 weeks
[3] = cited from earlier work
[4] = Pharmacokinetics of orally administered CBD; type: in vivo, human; conditions: oral; 4 to 5 times the half-life
Text: The half-life of CBD, administered orally, may be about […]. A steady state is may be reached about 10 days after regular dosing begins (i.e., 4 to 5 times the half-life). As such, with a 4 week treatment period all patients may achieve a steady state of CBD blood concentration.

seizures [5] = conditions: of the 7 participants who received CBD; temporal-lobe epilepsy; cited from earlier work
seizures [6] = conditions: after 3 months of treatment; TSC and treatment-resistant epilepsy; cited from earlier work
[7] = Toxicity assessment of kindled rats before stimulation (Loscher ataxia scale); type: in vivo, rat; conditions: IP
Experimental: Before each round of drug testing stimulation, the rats were assessed for motor toxicity using the Loscher ataxia scale. This scale is used to determine motor impairment. The scale rankings are as follows: Stage 1—slight ataxia in hind legs, no decrease in abdominal muscle tone; Stage 2—more pronounced ataxia, slight decrease in abdominal muscle tone, flat body position; Stage 3—increased ataxia, continued decrease in abdominal muscle tone, more pronounced flat body posture, splayed hind legs, and crawling during forward motion; Stage 4—marked ataxia, loss of balance during forward motion, loss of abdominal muscle tone, flat body posture, splayed hind legs, and dragging during forward motion; Stage 5—very marked ataxia, frequent loss of balance during forward motion, loss of abdominal muscle tone.

mice = conditions: intraperitoneally or orally; cited from earlier work
convulsive seizures = conditions: participants with Dravet Syndrome and drug-resistant seizures; cited from earlier work
[8] = in vivo; cited from earlier work

C=C(C)[C@@H]1CCC(C)=C[C@H]1c1c(O)cc(CCCCC)cc1O [CBD, cannabidiol]
suppression of focal seizures [1]: suppress some generalized and focal seizures | suppression of generalized seizures [1]: suppress some generalized and focal seizures | median reduction (seizures) (seizures [2]; patients with DS): 49.8% | participants free of seizures in the last four weeks of treatment (seizures [2]; patients with DS): 4 participants | median reduction (seizures) (seizures [2]; patients with LGS): 36.8% | participants free of seizures in the last four weeks of treatment (seizures [2]; patients with LGS): 1 participant | safety and tolerability in clinical trials ([3]; human, in vivo): safe and well tolerated across a wide dosage range | doses for which no significant adverse effects have been reported ([3]; p.o.): up to 1500 mg/day | time to steady state after regular dosing begins [4]: about 10 days | participants seizure free during treatment (seizures [5]): 4 | median percent change in total weekly seizure frequency (seizures [6]): −48.8% | doses with no observed toxic effects [7]: up to 320 mg/kg | dose-response of therapeutic benefits (anti-inflammatory and anti-nociceptive) (mice): bell-shaped dose-response | frequency of occurrence of convulsive seizures (convulsive seizures): significantly reduced | patients who became seizure free (convulsive seizures): about 5%

CCCCCc1cc(O)c2c(c1)OC(C)(C)[C@@H]1CCC(C)=C[C@@H]21 [THC, Δ^9-tetrahydrocannabinol]
suppression of focal seizures [1]: suppress some generalized and focal seizures | suppression of generalized seizures [1]: suppress some generalized and focal seizures | dose at which there may be psychotropic effects [8]: 10 mg | doses at which psychotoxicity was observed [7]: above 10 mg/kg

— patent US20210121435A1, “METHODS FOR TREATING SEIZURES IN EPILEPSY WITH A COMPOSITION COMPRISING CANNABINOIDS” (MEDRELEAF CORP., priority 2019, published 2021)
